Legend:
[1] = test system: PCP-treated rats; assay: Social interaction test, sub-chronic PCP model of schizophrenia; type: in vivo, rat
Procedure: (§1) Female hooded-Lister rats were used for this experiment. Rats were housed in groups of 5 under standard laboratory conditions under a 12 hr light: dark cycle, lights on at 0700 hr. Testing was carried out in the light phase.
(§2) Rats were randomly assigned to two treatment groups and treated with vehicle, n=20 (distilled water, i.p.) or Phencyclidine hydrochloride (PCP), n=100 (2 mg/kg, i.p. twice daily for 7-days). PCP was dissolved in distilled water. This was followed by a 7-day wash out period before the rats were tested following acute treatment with CBDV, risperidone or vehicle.
(§3) Risperidone (0.1 mg/kg) was dissolved in a minimum volume of acetic acid, made up to volume with distilled water and pH adjusted to 6 with 0.1M NaOH and administered via the i.p. route in a volume of 1 ml/kg, 60 min prior to testing.
(§4) CBDV at 2, 10 or 20 mg/kg was dissolved in 2:1:17 (Ethanol:Cremofor:Saline 0.9%) and administered via the i.p. route in a volume of 5 ml/kg, 60 min prior to testing.
The social interaction test is performed in an open-field comprising a square box made of Plexiglas (52×52×31 cm) placed 27 cm above the floor on a moveable trolley. The floor of the box is white with black gridlines forming 9 identical squares on it. All other walls are black. A video camera connected to a video recorder and monitor is positioned above the box. The object used for the test consists of a heavy structure made of metal that cannot be displaced by the animals.
The rats were habituated to the test environment and arena prior to the test day. Habituation consists of placing all rats from one cage together in the empty test arena for one hour for three days including the day before the test day.
Pairs of rats, weight matched (15-20 g) and unfamiliar to each other, receiving either no treatment (n=70 “conspecific” rats) or different treatments (PCP and Vehicle; n=10 “tested” rats or PCP+Drug; n=50 “tested” rats) were placed in the test arena together for 10 min and behaviour assessed as described below.
An inanimate object such as an unopened drinks can is also placed in the centre of the arena to measure any differences in interaction of the test animal with an unfamiliar animal as opposed to an unfamiliar object. After each 10 minute trial, the object and arena are cleaned with 10% alcohol in an attempt to remove traces of any olfactory cues. All testing is carried out under standard room illumination levels (70 cd/m2).
Behaviour in both trials was recorded on video for subsequent blind scoring. A behavioural scoring software program (Hindsight, Scientific programming services) is used to score the following parameters: • Investigative sniffing behaviour: sniffing the conspecific's snout or parts of the body including the anogenital region; • Following: rat moves after the conspecific i.e. a vehicle treated rat of the same species, around the arena; • Avoidances: actively turning away when approached by the conspecific animal; • Investigation of object: exploration of object placed in centre of the arena; and • Locomotor activity is recorded by counting the total number of sectors (i.e. lines) crossed by the test rat. Results

[2] = test system: PCP-treated rats; assay: Novel object recognition test, sub-chronic PCP model of schizophrenia; type: in vivo, rat; details: risperidone 0.1 mg/kg i.p. 60 min prior to testing
Procedure: as §1, §2, §3, §4
Rats were allowed to habituate to the empty test box and the behavioural test room environment for 1h on day 1. Prior to behavioural testing on day 2 rats are given a further 3 min habituation.
Following the 3 min habituation period, the rats are given two 3 min trials (T1 and T2) which are separated by a 1 min inter-trial interval in the home cage during which the objects are changed. Behaviour in all trials was recorded on video for subsequent blind scoring.
In this trial, the animals are allowed to explore two identical objects (A1 and A2) for 3 min.
In this trial, the animals explore a familiar object (A) from T1 and a novel object (B) for 3 min. The familiar object presented during T2 is a duplicate of the object presented in T1 in order to avoid any olfactory trails.
The object exploration is defined by animals licking, sniffing or touching the object with the forepaws whilst sniffing, but not leaning against, turning around, standing or sitting on the object. The exploration time (s) of each object (A, B, familiar and novel) in each trial are recorded using two stopwatches and the following factors are calculated:
Discrimination index (DI), which is calculated as shown below: […]

[3] = test system: PCP-treated rats; details: background statement; cited from earlier work

Cc1nc2n(c(=O)c1CCN1CCC(c3noc4cc(F)ccc34)CC1)CCCC2 [risperidone, reference compound]
PCP effects on social interaction (sniffing, following, avoiding) (FIG. 18) ([1]; risperidone 0.1 mg/kg i.p.): reverse these effects in a statistically significant manner | time spent following the other rat (FIG. 18B) ([1]; risperidone 0.1 mg/kg, time increased over PCP alone): not seen to be significant | time spent investigating two identical objects in Trial 1 (FIG. 16A) [2]: no real preference | PCP-induced deficit in the novel object recognition (NOR) test [3]: can attenuate the deficit

Reference: patent US11752111B2, “Use of cannabidivarin in the treatment of autism spectrum disorder, associated disorders and schizophrenia” (GW Research Limited, priority 2016, dated 2023)
